Measured values published in ChEMBL document CHEMBL5465560, “Selectivity Literature for EUbOPEN Chemogenomic Library” (2024).
Each block holds one compound with its values, some of them ahead of it.

Assays:
[1] = system: ALK tyrosine kinase receptor (Homo sapiens), Q9UM73 [C1156Y]; experiment: (§1) Selectivity interaction (KinomeScan (DiscoverX)) EUB0001049a ALK; details: at 1 µM
[2] = system: ALK tyrosine kinase receptor (Homo sapiens), Q9UM73 [L1196M]; experiment: as §1; details: at 1 µM
[3] = target: ALK tyrosine kinase receptor (Homo sapiens, UniProt Q9UM73); experiment: as §1; details: at 1 µM
[4] = target: Mitogen-activated protein kinase 8 (Homo sapiens, UniProt P45983); experiment: Selectivity interaction (ActivX KiNativ screen (kinase selectivity in THP-1 cell lysates)) EUB0000639a MAPK8; type: subcellular; details: lysate
[5] = system: Epidermal growth factor receptor (Homo sapiens), P00533 [UNDEFINED MUTATION]; experiment: Selectivity interaction (ProQinase) EUB0000171b EGFR; details: at 5 µM
[6] = target: T1, Serine/threonine-protein kinase BRSK1 (Homo sapiens) (UniProt Q8TDC3); experiment: Selectivity interaction (ProQinase) EUB0000171b BRSK1
T1 sequence (whole entry): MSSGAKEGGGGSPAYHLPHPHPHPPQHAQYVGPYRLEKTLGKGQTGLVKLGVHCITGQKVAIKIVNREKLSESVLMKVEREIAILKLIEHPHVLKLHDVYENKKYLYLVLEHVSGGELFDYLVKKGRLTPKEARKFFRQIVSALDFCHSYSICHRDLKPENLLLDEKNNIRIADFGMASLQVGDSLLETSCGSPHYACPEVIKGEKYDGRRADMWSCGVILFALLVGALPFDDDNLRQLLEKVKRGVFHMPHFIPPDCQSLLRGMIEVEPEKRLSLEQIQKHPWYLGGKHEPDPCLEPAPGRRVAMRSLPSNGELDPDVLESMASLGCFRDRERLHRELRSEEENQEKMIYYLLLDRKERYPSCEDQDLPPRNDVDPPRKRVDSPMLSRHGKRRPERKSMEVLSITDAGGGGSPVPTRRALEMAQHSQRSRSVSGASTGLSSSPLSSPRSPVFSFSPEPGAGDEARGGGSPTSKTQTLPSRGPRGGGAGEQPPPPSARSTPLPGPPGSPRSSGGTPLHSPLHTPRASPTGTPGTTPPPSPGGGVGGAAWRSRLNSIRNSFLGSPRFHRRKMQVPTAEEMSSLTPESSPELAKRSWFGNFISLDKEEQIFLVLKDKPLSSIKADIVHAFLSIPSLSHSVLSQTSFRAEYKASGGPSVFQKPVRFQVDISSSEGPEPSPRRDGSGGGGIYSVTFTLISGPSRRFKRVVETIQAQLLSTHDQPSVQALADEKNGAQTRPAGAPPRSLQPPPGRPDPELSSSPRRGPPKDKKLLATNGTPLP

[7] = target: Serine/threonine-protein kinase Chk2 (Homo sapiens) (UniProt O96017); experiment: Selectivity interaction (ProQinase) EUB0000171b CHEK2
[8] = target: Mitogen-activated protein kinase kinase kinase 20 (Homo sapiens) (UniProt Q9NYL2); experiment: Selectivity interaction (KinomeScan (DiscoverX)) EUB0000655a MAP3K20; details: at 10 µM
[9] = target: T2, Phosphatidylinositol 4,5-bisphosphate 3-kinase catalytic subunit delta isoform (Homo sapiens) (UniProt O00329); experiment: Selectivity interaction (KinomeScan (DiscoverX)) EUB0001619a PIK3CD; details: at 1 µM
T2 sequence (whole entry): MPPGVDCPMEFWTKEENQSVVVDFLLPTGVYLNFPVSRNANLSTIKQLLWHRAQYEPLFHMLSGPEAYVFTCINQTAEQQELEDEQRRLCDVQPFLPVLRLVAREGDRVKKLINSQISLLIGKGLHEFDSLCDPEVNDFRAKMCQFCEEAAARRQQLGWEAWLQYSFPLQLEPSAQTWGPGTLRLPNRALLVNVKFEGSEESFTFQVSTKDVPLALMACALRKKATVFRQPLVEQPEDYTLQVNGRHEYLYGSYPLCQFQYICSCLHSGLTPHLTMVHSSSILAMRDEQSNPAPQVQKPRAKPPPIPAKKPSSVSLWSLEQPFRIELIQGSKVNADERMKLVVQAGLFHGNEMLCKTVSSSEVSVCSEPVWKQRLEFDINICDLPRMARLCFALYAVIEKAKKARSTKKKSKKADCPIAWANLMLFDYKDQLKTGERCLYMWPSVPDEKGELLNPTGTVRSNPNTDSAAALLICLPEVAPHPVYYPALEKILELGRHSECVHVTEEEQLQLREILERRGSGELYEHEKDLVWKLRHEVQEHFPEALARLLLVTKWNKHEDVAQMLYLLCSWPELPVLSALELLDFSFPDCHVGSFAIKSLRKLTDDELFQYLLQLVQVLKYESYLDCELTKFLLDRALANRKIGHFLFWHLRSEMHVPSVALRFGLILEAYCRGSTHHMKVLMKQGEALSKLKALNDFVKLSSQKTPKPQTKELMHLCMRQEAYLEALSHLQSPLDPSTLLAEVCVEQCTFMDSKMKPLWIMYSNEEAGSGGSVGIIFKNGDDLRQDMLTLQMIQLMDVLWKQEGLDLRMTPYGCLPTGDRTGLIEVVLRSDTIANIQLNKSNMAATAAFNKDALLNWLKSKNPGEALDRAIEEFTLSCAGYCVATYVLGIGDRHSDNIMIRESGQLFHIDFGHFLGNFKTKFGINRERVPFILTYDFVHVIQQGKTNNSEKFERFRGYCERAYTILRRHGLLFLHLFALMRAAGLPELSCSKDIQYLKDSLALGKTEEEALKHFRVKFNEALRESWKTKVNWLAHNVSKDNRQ

[10] = target: Cyclin-dependent kinase 13 (Homo sapiens, UniProt Q14004); experiment: Selectivity interaction (KinomeScan (DiscoverX)) EUB0000666a CDK13; details: at 10 µM

Mitogen-activated protein kinase 8, sequence (P45983 whole entry): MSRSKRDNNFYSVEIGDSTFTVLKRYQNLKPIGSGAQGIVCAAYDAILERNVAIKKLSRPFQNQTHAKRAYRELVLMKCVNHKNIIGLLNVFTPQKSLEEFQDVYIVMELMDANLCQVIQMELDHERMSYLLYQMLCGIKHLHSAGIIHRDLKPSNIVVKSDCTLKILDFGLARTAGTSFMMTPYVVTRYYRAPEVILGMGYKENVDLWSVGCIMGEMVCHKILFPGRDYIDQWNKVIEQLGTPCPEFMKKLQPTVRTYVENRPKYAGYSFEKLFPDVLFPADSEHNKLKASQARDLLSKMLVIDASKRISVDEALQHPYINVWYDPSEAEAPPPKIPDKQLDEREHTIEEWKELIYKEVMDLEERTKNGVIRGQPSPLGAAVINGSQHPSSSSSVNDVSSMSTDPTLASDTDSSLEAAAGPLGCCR
Serine/threonine-protein kinase Chk2 (Homo sapiens), sequence (O96017 whole entry): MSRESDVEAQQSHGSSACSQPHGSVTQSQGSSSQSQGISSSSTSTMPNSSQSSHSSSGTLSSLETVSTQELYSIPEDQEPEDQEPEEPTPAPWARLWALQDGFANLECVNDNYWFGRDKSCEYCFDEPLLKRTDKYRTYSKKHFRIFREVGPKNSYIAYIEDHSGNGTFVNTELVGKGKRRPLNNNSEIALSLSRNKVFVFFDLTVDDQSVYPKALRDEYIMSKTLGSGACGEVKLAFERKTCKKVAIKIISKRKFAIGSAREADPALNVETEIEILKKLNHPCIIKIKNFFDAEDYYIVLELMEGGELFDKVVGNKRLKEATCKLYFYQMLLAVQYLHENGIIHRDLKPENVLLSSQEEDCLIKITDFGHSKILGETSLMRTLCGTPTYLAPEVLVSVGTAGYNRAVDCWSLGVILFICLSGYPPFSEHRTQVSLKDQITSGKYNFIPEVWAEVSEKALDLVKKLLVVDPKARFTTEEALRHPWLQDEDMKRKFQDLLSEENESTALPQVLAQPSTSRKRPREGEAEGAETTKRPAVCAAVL
ALK tyrosine kinase receptor (Homo sapiens), Q9UM73 [L1196M], sequence (Q9UM73 whole entry L1196M, looked up): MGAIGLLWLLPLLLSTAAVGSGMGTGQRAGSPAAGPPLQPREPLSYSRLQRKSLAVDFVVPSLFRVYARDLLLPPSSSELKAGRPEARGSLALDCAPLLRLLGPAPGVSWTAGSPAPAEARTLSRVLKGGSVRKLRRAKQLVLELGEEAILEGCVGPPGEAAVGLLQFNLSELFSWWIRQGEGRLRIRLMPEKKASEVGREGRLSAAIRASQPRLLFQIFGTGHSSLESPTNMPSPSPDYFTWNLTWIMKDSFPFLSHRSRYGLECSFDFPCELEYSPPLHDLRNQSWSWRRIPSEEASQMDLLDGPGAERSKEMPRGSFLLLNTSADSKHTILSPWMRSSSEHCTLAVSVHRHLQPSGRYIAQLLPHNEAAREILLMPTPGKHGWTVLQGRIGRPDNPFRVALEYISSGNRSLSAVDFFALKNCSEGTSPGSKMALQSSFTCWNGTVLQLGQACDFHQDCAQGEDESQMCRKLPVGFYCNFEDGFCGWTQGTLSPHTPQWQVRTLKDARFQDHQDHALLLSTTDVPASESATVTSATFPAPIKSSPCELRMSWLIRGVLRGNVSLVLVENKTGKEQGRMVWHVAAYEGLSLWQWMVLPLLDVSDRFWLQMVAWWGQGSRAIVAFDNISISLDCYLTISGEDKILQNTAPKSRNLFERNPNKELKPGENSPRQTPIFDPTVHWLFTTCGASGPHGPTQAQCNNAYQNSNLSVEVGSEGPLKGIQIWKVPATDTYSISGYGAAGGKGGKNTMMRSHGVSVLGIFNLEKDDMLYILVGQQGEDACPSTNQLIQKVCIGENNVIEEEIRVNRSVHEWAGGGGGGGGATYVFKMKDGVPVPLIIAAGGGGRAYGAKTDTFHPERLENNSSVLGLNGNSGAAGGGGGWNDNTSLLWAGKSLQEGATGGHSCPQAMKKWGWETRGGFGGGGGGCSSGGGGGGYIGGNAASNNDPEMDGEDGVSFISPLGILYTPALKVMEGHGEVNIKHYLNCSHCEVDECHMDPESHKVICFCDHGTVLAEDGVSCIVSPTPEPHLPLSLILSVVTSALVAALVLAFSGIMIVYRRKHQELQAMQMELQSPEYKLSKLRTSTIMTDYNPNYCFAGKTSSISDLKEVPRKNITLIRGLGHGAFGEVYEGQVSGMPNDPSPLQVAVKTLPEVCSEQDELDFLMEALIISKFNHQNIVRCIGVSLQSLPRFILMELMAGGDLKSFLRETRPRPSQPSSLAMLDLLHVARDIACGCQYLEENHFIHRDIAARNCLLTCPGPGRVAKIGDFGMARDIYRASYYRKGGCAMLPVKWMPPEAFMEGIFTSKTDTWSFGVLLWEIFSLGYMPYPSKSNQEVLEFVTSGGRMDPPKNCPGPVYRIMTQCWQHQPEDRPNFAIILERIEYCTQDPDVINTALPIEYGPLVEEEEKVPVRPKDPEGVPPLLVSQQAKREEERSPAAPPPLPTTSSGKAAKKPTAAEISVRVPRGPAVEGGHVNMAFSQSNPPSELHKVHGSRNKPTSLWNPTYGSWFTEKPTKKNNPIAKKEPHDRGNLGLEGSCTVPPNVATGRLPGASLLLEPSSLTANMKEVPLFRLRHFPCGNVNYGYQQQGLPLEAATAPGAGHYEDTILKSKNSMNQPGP
Epidermal growth factor receptor (Homo sapiens), P00533 [UNDEFINED MUTATION], sequence (P00533 whole entry, looked up, change not shown): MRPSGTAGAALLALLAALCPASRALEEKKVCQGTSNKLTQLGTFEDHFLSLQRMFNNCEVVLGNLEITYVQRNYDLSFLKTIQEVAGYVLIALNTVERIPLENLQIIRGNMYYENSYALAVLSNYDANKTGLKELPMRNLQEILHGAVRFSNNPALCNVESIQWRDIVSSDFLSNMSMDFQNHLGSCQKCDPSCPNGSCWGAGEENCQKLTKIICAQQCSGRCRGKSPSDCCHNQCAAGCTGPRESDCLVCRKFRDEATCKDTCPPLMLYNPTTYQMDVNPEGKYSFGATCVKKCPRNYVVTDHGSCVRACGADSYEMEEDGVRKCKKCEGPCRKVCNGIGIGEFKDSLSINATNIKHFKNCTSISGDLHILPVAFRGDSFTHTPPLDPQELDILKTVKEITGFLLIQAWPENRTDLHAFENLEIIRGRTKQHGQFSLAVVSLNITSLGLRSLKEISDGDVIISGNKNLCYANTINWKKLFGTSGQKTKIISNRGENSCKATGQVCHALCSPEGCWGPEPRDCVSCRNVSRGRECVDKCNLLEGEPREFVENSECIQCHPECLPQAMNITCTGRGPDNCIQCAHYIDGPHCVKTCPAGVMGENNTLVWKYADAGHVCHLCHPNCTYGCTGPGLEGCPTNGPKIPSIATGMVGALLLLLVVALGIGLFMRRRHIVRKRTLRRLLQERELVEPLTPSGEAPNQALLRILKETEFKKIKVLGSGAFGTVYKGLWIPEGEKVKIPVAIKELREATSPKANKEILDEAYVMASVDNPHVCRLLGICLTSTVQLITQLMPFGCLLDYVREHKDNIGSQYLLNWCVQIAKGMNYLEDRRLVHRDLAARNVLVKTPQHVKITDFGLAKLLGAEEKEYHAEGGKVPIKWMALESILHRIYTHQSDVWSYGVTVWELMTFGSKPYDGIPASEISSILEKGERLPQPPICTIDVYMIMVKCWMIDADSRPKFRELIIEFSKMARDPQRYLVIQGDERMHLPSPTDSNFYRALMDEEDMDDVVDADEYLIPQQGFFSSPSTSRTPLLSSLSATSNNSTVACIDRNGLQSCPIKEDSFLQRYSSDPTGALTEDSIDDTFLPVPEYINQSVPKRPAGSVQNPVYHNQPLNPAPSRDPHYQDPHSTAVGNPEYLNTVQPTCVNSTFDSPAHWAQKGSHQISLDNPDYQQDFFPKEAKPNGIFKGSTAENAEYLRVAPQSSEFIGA
Mitogen-activated protein kinase kinase kinase 20 (Homo sapiens), sequence (Q9NYL2 2-800 limits assumed): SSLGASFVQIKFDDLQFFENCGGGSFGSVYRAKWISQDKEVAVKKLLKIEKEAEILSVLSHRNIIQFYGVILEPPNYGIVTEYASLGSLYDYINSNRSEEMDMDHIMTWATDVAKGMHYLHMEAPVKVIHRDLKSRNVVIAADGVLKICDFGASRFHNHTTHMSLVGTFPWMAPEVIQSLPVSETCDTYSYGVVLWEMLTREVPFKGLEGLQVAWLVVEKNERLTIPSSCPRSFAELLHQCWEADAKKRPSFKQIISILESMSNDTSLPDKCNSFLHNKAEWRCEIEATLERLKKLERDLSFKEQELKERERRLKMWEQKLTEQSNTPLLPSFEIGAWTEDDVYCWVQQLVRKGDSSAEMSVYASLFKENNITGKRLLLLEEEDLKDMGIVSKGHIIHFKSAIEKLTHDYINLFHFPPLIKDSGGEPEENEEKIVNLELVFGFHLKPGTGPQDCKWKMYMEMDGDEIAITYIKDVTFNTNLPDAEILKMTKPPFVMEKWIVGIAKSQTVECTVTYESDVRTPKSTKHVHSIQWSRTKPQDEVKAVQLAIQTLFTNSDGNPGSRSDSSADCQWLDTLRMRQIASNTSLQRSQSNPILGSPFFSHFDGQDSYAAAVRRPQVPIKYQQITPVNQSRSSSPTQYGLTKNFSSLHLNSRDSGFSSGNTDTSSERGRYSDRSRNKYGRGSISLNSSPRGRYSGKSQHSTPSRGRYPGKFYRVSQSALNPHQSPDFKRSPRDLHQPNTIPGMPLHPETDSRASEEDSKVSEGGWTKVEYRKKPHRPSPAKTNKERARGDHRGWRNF
ALK tyrosine kinase receptor (Homo sapiens), Q9UM73 [C1156Y], sequence (Q9UM73 whole entry C1156Y, looked up): as the sequence (Q9UM73 whole entry L1196M, looked up) above, with C1156Y, M1196L counted along it

Structure (SMILES): COc1cc(Nc2nc(C)cc(-c3cnn4nc(OC)ccc34)n2)cc(C(F)(F)F)c1
% of control [1]: 89% | % of control [2]: 100% | % of control [3]: 94%

% of inhibition ([4]; at 0.01 µM): 13.3% | % of inhibition ([4]; at 0.04 µM): -1.4% | % of inhibition ([4]; at 0.2 µM): 1.6% | % of inhibition ([4]; at 1 µM): 27.7% | % of inhibition ([4]; at 5 µM): 57.5%
Structure (SMILES): CC[C@@H]1[C@H](F)C(=O)N[C@@H]1COc1nccc2cc(C(N)=O)c(OC)cc12 [ZIMLOVISERTIB]

% of control [5]: 96% | % of control ([6]; at 1 µM): 107% | % of control ([6]; at 5 µM): 95% | % of control ([7]; at 1 µM): 70% | % of control ([7]; at 5 µM): 36%
Structure (SMILES): C=CC(=O)Nc1cccc(C(=O)Nc2ccc(Nc3cc(-c4[nH]c(SC)nc4C)ccn3)cc2)c1

Structure (SMILES): CN(C)CCOc1ccc(-c2nc(-c3ccncc3)c(-c3ccc4c(c3)CC/C4=N\O)[nH]2)cc1
% of control [8]: 84%

Structure (SMILES): N#Cc1cccc(-c2c[nH]c3ncnc(N4CCOCC4)c23)c1
% of control [9]: 100%

Structure (SMILES): O=C(NOC[C@H](O)CO)c1ccc(F)c(F)c1Nc1ccc(I)cc1F
% of control [10]: 84%
